The text below walks through data of ChEMBL document CHEMBL4837250, “Discovery of LYC-55716: A Potent, Selective, and Orally Bioavailable Retinoic Acid Receptor-Related Orphan Receptor-γ (RORγ) Agonist for Use in Treating Cancer” (J Med Chem, 2021).

The target of series [1] is T1, Nuclear receptor ROR-alpha (Homo sapiens, UniProt P35398).
T1 sequence (P35398 whole entry): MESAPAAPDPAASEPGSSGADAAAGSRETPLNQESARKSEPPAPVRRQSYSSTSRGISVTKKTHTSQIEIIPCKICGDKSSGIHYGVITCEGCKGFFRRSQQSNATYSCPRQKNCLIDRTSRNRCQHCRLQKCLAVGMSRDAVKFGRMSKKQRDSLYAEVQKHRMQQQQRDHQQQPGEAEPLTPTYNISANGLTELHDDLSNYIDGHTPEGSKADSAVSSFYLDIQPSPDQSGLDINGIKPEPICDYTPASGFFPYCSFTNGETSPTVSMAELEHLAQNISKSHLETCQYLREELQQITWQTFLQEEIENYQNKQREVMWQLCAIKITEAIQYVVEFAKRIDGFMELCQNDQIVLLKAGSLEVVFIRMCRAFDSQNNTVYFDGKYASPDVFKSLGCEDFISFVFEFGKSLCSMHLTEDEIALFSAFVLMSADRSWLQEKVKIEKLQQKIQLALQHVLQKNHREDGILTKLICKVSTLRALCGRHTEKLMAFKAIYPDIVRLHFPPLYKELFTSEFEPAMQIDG
Description: Agonist activity at RORalpha (unknown origin)

For series [2], the target named is T2, Nuclear receptor ROR-beta (Homo sapiens, UniProt Q92753).
T2 sequence (Q92753 whole entry): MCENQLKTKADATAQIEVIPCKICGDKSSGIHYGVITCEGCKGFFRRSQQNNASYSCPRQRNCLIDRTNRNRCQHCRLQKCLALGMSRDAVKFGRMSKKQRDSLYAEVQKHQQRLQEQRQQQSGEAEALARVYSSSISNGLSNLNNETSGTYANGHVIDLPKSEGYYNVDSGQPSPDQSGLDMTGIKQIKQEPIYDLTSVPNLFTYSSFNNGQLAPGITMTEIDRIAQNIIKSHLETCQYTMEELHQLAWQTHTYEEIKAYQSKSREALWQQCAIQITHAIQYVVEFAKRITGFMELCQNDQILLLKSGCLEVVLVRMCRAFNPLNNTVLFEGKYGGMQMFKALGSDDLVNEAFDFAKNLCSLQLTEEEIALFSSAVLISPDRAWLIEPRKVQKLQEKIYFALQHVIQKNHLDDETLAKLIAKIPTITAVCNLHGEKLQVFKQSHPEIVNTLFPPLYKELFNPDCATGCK
Description: Agonist activity at RORbeta (unknown origin)

The nature of series [3]: cells. The settings on record: Mus musculus, C57/BL6.
Description: In vivo agonist activity at RORgamma in C57/BL6 mouse assessed as plasma concentration required to increase RORgamma targeted gene expression in isolated thymocytes
The nature of series [4]: in vivo. The settings on record: CD1, mouse, po, 10 mg/kg.
Series [5] is described as follows: in vivo. The conditions noted are these: CD1, mouse, po, 10 mg/kg. This is another data set of the same source.
Description: Half life in CD1 mouse at 10 mg/kg, po
The nature of series [6]: in vivo. The conditions noted are these: CD1, mouse, po, 10 mg/kg. This is another data set of the same source.
Series [7] can be described thus: in vivo. The conditions noted are these: Sprague-Dawley, rat, po, at 30 to 300 mg/kg.
A short description of series [8]: in vivo. The settings on record: Sprague-Dawley, rat, iv, 1 mg/kg.
Description: Half life in Sprague-Dawley rat at 1 mg/kg, iv
Series [9] in a line: in vivo. The conditions noted are these: Sprague-Dawley, rat, iv, 1 mg/kg. This is another data set of the same source.
Description: Volume of distribution in Sprague-Dawley rat at 1 mg/kg, iv
The nature of series [10]: in vivo. The conditions noted are these: cynomolgus monkey, po, at 30 to 300 mg/kg.
Series [11] is described as follows: in vivo. The conditions noted are these: cynomolgus monkey, iv, 1 mg/kg.
Description: Half life in cynomolgus monkey rat at 1 mg/kg, iv
Series [12] in a line: in vivo. The conditions noted are these: cynomolgus monkey, iv, 1 mg/kg. The source holds these as a separate data set.
Description: Volume of distribution in cynomolgus monkey rat at 1 mg/kg, iv
For series [13], the target named is CYP3A4 (Homo sapiens, UniProt P08684). Briefly: in vitro. The settings on record: probe testosterone.
Description: Inhibition of CYP3A4 (unknown origin) assessed as oxidation of testosterone at 10 uM
The target in series [14] is CYP2D6 (Homo sapiens, UniProt P10635). Briefly: in vitro. The settings on record: probe testosterone.
Description: Inhibition of CYP2D6 (unknown origin) assessed as oxidation of testosterone at 10 uM
The nature of series [15]: physchem. The settings on record: PBS buffer, pH 7.4.
Description: Solubility of the compound in pH 7.4 PBS buffer
The target in series [16] is hERG (KCNH2) (Homo sapiens, UniProt Q12809). Briefly: in vitro.
Description: Inhibition of human ERG by patch-clamp assay
The nature of series [17]: in vitro. The settings on record: mouse, plasma.
Description: Plasma protein binding in mouse
Series [18] in a line: in vitro. The settings on record: human, plasma.
Description: Plasma protein binding in human
Series [19] relates to MC-38. Briefly: animal or person. The conditions noted are these: Mus musculus, MC-38, po, 600 h, read-out: TGI.
Description: Antitumor activity against mouse MC38 cells implanted in C57/BL6 mouse assessed as tumor growth inhibition at 30 mg/kg, po twice daily measured up to 25 days

≈ marks a conversion by molar mass, not a printed value. Some results are limits rather than exact numbers.

Chain of CYP3A4 (P08684 whole entry): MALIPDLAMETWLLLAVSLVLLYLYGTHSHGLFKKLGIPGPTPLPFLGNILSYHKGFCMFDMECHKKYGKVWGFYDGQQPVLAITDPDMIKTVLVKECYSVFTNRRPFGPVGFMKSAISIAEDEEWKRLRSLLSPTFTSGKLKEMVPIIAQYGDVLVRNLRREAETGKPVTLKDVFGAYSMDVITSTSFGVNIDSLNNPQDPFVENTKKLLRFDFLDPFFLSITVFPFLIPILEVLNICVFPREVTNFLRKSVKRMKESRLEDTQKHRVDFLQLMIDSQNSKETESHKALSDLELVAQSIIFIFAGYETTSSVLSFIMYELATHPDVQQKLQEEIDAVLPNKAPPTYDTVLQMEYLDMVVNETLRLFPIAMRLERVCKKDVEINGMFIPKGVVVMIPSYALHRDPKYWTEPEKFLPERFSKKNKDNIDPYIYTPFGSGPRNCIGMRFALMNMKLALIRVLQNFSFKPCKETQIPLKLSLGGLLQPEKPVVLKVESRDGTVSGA
Chain of CYP2D6 (P10635 whole entry): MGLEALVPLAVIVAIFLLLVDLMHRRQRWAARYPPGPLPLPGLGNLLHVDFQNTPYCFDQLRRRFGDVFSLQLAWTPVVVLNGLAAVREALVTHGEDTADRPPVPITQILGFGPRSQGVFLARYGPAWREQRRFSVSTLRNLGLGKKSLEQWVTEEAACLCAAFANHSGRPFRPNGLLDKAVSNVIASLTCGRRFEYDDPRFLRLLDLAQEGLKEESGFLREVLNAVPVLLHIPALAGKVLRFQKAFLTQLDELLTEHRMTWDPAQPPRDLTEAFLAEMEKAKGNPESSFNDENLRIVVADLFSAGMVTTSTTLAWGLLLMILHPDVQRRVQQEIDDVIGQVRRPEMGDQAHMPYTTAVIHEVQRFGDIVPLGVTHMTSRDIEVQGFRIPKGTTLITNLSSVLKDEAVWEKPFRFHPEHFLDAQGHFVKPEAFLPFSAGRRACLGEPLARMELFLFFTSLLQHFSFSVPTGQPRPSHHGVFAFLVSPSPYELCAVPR
Chain of hERG (KCNH2) (Q12809 whole entry): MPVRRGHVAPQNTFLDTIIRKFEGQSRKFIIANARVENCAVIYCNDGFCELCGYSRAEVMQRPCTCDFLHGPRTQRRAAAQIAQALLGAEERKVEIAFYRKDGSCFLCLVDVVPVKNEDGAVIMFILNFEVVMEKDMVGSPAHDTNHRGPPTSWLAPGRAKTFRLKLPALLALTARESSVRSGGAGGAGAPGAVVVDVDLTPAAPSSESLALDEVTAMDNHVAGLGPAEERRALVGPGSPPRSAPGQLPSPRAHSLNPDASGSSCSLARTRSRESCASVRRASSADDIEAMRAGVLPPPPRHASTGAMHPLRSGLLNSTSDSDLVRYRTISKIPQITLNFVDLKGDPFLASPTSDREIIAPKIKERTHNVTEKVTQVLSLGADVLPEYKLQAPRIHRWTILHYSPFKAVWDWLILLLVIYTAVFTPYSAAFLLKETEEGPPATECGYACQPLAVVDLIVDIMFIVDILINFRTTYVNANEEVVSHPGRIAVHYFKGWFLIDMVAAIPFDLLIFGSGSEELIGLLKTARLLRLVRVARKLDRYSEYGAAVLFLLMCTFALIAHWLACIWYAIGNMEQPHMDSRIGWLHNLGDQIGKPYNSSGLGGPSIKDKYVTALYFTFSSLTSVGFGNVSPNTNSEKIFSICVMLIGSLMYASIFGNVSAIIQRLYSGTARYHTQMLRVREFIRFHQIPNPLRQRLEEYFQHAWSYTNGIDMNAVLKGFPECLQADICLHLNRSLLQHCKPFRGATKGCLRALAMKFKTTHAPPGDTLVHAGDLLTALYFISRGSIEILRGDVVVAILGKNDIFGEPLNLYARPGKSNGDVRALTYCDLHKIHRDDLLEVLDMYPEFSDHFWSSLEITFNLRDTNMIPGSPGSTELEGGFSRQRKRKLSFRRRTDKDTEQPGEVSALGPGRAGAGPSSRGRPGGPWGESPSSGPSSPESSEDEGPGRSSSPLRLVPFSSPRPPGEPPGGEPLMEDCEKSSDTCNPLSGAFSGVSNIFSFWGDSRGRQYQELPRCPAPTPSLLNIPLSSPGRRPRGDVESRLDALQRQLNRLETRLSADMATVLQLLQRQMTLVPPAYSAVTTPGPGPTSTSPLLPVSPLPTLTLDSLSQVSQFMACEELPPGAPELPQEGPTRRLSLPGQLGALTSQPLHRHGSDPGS

In the case of `CC(C)(C[C@H]1CN(S(=O)(=O)c2cccc(C(F)(F)F)c2)c2cc(-c3cc(F)cc(OC(F)F)c3)ccc2O1)C(=O)O` [CINTIRORGON], the EC50 is over 10 µM in series [1], over 10 µM in series [2] and 0.338 µM in [3]. The AUC(0-inf) in series [4] is 3240 ng·h/mL. For the same compound, the results for the half-life in [5], in [8] and in [11] were 4.31 h, 2.8 h and 6.6 h, respectively. Further, the bioavailability in series [6] is 55%; in [7], at least 100%; in series [10], at least 100%. The Vd in series [9] was determined as 5.7 L/kg; in [12], 1.42 L/kg. Also, the inhibition at 10 µM in series [13] came out at 9.5%; in [14], 6%. The compound also gave a solubility in series [15] of 10 µM (≈ 6.04 µg/mL). The same compound registered an IC20 in series [16] of over 50 µM. Further, the values for the fraction unbound in [17] and in [18] were 0.033 and 0.044, respectively. Further, the inhibition in vivo at 30 mg/kg in series [19] is 46%.

By EC50 is commonly meant the concentration giving half of the maximal effect. One may read the AUC(0-inf) as the area under the concentration-time curve extrapolated to infinity. Low values mean less exposure, high ones more exposure. A word on the half-life: it is the time needed for the level to fall by half in the phase considered. The term bioavailability denotes the share of a dose that reaches the circulation, judged against a reference dose that is usually intravenous. A lower bioavailability goes with poor availability. As usually defined, the Vd is the apparent volume that relates the amount in the body to the concentration in plasma or blood. The low end stands for confinement near the circulation, the high end for extensive tissue distribution. Usually inhibition stands for the percentage by which the read-out fell short of the control. A low value points to a response near the control. The solubility is how much of the substance goes into solution per volume. Usually IC20 stands for the point of the concentration-response curve where the effect stands at 20%. As a reminder, the fraction unbound is free concentration divided by total concentration.
